Structures can show the parent of a compound that is named as a salt.
How the values were obtained:
SK-N-MC cells = experiment: 59Fe uptake into SK-N-MC cells from 59Fe-loaded transferrin; format: cell-based; settings: comparison with DFOB
[1] = test system: SK-N-MC neuroepithelioma cells; experiment: 59Fe efflux from 59Fe-prelabeled SK-N-MC cells; format: cell-based; settings: compound 50 μM, 3 h, 37° C.; SK-N-MC cells prelabeled 3 h with 59Fe-loaded transferrin (0.75 μM)
[2] = oral; cited from earlier work
[3] = RP-HPLC relative hydrophobicity / logP correlation; settings: C18 column, H2O/ACN 0.1% TFA gradient, free or Fe(III)-loaded ligand
[4] = standards used in RP-HPLC logP correlation; cited from earlier work

Compound: CC(=O)N(O)CCCCCNC(=O)CCC(=O)N(O)CCCCCNC(=O)CCC(=O)N(O)CCCCCNC(=O)COc1ccc(C)cc1 [4-methylphenoxyacetate-DFOB, 4-methylphenoxyacetate-desferrioxamine B]
- competition with 59Fe-loaded transferrin for 59Fe, preventing accumulation of Fe within the cell (SK-N-MC cells): more efficient
- Fe efflux (59Fe released from prelabeled cells) [1]: 31.6%

Compound: CC(=O)N(O)CCCCCNC(=O)CCC(=O)N(O)CCCCCNC(=O)CCC(=O)N(O)CCCCCNC(=O)CCCC[C@@H]1SC[C@@H]2NC(=O)N[C@@H]21 [Biotin-DFOB, biotin-desferrioxamine B]
- Fe efflux (59Fe released from prelabeled cells) [1]: 6.6%

Compound: CC(=O)N(O)CCCCCNC(=O)CCC(=O)N(O)CCCCCNC(=O)CCC(=O)N(O)CCCCCN [DFOB, desferrioxamine B, reference compound]
- Fe efflux (59Fe released from prelabeled cells) [1]: 10.8%

Compound: CC(=O)N(O)CCCCCNC(=O)CCC(=O)N(O)CCCCCNC(=O)CCC(=O)N(O)CCCCCN [Desferal, mesylate salt of desferrioxamine B]
- fraction of an orally administered dose absorbed [2]: 15%

Compound: CC(=O)N(O)CCCCCNC(=O)CCC(=O)N(O)CCCCCNC(=O)CCC(=O)N(O)CCCCCNC(=O)C12CC3CC(CC(C3)C1)C2 [adamantane-DFOB, adamantane-desferrioxamine B]
- competition with 59Fe-loaded transferrin for 59Fe, preventing accumulation of Fe within the cell (SK-N-MC cells): more efficient
- Fe efflux (59Fe released from prelabeled cells) [1]: 28%
- relative hydrophobicity / water solubility from RP-HPLC retention [3]: least water soluble
- relative hydrophobicity / water solubility from RP-HPLC retention ([3]; listed as adamantane-desferrioxamine B): significantly more hydrophobic

Compound: CC(=O)N(O)CCCCCNC(=O)CCC(=O)N(O)CCCCCNC(=O)CCC(=O)N(O)CCCCCNC(=O)c1ccc2c(c1)OCCOCCOCCOCCO2 [benzo-15-crown-5-4-carboxylate-DFOB, benzo-15-crown-5-4-carboxylate-desferrioxamine B]
- Fe efflux (59Fe released from prelabeled cells) [1]: 9.6%

Compound: Oc1cccc2ccccc12 [α-naphthol]
- logP [4]: 2.7

— US8309583B2, “Desferrioxamine conjugates, derivatives and analogues” (priority 2007, dated 2012)
